Measurements taken from ChEMBL document CHEMBL1142534, “Design, synthesis, biological evaluation and pharmacokinetics of bis(hydroxyphenyl) substituted azoles, thiophenes, benzenes, and aza-benzenes as potent and selective nonsteroidal inhibitors of 17beta-hydroxysteroid dehydrogenase type 1 (17beta-HSD1)” (J Med Chem, 2008).
The source made the active and inactive calls. The rule behind the calls is not given here.

Legend:
[1] = target: T1, 17-beta-hydroxysteroid dehydrogenase type 1 (Homo sapiens) (UniProt P14061); assay: (§1) Inhibition of human placental cytosolic 17beta-HSD1
T1 sequence (whole entry): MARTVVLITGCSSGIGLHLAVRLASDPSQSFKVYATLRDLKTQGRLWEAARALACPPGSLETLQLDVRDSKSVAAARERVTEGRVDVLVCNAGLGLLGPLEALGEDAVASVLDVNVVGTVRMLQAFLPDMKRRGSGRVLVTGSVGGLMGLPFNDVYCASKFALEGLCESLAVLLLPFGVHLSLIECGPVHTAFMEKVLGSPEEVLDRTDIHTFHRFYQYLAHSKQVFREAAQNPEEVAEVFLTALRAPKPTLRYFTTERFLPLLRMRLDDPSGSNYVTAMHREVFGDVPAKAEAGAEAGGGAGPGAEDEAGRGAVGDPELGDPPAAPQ

[2] = target: T2, Estrogen receptor (Homo sapiens) (UniProt P03372); assay: Displacement of [2,4,6,7-3H]17beta-estradiol from human recombinant ERalpha receptor relative to 17-beta-estradiol
T2 sequence (whole entry): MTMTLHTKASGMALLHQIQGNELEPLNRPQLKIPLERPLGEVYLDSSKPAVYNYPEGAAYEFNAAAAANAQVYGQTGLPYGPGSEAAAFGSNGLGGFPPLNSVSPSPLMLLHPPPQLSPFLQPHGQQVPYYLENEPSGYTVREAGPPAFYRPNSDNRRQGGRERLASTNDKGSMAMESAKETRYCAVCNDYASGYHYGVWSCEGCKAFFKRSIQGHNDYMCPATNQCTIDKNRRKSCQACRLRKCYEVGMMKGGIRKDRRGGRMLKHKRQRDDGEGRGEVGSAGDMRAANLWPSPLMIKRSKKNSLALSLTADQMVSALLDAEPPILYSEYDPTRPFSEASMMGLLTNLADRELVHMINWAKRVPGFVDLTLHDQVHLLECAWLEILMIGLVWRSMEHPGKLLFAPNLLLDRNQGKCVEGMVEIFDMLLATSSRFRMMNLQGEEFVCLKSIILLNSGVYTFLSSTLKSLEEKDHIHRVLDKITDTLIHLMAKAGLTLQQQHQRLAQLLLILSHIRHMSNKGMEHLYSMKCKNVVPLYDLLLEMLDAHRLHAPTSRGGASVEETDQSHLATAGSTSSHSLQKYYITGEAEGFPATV

[3] = target: Estrogen receptor beta (Homo sapiens) (UniProt Q92731); assay: Displacement of [2,4,6,7-3H]17beta-estradiol from human recombinant ERbeta receptor relative to 17-beta-estradiol
[4] = target: T3, 17-beta-hydroxysteroid dehydrogenase type 1 (Homo sapiens, UniProt P14061); assay: as §1
T3 sequence (P14061 whole entry): T1 sequence (whole entry)

Cytochrome P450 2C19 = Cytochrome P450 2C19 (Homo sapiens, UniProt P33261); assay: Inhibition of human hepatic CYP2C19; type: ADME
T47D = assay: Estrogenic activity in human ER expressing T47D cells assessed as stimulation of cell proliferation at 100 nM by MTT assay; type: functional, cell-based
in vitro [5] = conditions: Sprague-Dawley, rat, liver microsomes
Cytochrome P450 2B6 = target: T4, Cytochrome P450 2B6 (Homo sapiens, UniProt P20813); assay: Inhibition of human hepatic CYP2B6; type: ADME
T4 sequence (P20813 whole entry): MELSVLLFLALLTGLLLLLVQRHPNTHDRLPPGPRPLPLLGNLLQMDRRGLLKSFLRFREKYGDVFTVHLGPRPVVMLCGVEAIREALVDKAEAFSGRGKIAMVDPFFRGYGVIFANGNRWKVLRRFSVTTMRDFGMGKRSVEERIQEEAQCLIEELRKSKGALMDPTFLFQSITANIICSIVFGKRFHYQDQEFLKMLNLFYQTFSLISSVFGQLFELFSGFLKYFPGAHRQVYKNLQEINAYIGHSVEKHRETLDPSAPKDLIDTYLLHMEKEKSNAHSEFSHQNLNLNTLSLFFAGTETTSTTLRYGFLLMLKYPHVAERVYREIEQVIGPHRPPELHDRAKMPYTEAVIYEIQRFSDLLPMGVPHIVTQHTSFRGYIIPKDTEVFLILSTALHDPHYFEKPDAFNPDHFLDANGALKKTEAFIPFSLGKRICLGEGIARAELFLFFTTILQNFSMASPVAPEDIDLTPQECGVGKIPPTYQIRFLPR

Cytochrome P450 3A4 = Cytochrome P450 3A4 (Homo sapiens, UniProt P08684); assay: Inhibition of human hepatic CYP3A4
Cytochrome P450 2D6 = Cytochrome P450 2D6 (Homo sapiens, UniProt P10635); assay: Inhibition of human hepatic CYP2D6; type: ADME
in vitro [6] = conditions: Sprague-Dawley, rat, liver microsomes; remark: listed apart in the source
Cytochrome P450 1A2 = target: T5, Cytochrome P450 1A2 (Homo sapiens, UniProt P05177); assay: Inhibition of human hepatic CYP1A2; type: ADME
T5 sequence (P05177 whole entry): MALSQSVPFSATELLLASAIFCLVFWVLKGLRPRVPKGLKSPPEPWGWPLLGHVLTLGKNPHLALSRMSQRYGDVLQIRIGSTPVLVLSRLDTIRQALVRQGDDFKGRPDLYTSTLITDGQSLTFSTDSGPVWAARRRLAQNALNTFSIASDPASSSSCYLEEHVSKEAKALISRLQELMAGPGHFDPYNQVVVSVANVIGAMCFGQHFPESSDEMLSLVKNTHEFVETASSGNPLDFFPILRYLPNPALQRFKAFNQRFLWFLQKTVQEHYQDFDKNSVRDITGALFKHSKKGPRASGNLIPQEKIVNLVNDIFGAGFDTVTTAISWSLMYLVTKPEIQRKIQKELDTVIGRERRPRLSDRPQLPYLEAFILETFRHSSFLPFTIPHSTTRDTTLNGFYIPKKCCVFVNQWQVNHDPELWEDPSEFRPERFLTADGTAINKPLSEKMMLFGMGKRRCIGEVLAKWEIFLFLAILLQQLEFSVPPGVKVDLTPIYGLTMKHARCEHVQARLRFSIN

in vitro [7] = conditions: human, Caco-2
Description: Apparent permeability across human Caco-2 cells at 50 uM

Chain of Estrogen receptor beta (Homo sapiens) (Q92731 whole entry): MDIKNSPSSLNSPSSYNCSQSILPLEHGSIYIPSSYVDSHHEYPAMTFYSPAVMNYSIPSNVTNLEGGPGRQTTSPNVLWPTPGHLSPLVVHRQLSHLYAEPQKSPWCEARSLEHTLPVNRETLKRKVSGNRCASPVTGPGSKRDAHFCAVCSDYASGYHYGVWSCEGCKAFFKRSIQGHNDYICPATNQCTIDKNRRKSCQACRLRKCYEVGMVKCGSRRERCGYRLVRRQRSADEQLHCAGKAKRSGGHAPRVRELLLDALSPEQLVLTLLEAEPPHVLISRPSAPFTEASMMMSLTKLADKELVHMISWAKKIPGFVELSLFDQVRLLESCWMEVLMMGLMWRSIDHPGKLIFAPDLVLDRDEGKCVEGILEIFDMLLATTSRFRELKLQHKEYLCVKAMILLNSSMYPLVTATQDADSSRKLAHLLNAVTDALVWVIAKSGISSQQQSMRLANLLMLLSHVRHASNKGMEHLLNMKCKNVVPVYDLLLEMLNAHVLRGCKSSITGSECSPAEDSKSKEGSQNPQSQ
Chain of Cytochrome P450 2D6 (P10635 whole entry): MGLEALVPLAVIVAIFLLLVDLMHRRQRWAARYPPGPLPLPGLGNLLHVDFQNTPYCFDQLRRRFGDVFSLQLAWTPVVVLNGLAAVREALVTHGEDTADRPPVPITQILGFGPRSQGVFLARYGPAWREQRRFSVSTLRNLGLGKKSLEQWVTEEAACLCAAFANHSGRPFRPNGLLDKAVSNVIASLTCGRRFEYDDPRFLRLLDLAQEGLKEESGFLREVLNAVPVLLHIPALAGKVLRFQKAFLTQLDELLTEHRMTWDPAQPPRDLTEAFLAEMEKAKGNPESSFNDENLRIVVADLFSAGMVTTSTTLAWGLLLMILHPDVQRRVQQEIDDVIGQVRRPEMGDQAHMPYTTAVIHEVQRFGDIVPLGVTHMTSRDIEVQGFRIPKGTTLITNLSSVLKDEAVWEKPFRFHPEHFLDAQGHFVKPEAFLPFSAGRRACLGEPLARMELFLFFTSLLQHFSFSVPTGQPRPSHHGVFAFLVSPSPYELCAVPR
Chain of Cytochrome P450 2C19 (P33261 whole entry): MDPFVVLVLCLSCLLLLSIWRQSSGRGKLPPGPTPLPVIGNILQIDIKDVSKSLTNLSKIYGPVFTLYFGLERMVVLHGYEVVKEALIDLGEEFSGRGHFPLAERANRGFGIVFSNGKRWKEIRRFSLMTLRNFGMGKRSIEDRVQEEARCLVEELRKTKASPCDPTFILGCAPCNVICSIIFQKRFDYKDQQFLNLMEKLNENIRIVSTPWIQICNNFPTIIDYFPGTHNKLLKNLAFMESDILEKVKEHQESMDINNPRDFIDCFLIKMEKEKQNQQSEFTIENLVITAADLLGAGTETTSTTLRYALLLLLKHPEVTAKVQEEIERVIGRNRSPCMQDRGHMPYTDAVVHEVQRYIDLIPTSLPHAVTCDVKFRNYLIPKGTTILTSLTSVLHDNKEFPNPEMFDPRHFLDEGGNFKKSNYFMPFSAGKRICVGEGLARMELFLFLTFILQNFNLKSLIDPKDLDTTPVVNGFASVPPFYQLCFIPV
Chain of Cytochrome P450 3A4 (P08684 whole entry): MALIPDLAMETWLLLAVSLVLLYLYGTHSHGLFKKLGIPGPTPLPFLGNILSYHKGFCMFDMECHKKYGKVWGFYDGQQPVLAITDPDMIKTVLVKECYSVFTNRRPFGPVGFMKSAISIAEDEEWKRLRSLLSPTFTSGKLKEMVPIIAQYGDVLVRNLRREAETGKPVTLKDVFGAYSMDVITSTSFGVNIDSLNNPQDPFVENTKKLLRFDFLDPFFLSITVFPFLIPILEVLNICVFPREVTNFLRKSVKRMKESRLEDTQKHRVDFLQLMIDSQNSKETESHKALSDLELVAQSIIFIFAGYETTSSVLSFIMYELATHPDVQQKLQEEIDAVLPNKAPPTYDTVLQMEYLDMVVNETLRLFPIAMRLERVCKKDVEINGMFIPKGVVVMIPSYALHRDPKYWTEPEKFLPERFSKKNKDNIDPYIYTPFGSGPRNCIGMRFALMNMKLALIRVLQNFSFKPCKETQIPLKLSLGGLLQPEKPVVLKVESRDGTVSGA

Activity [1] | IC50 [4] [nM] | Structure (SMILES) | other results
inactive |  | Oc1ccc(-c2cnc(-c3ccc(O)cc3)s2)cc1 | 
inactive |  | Cn1nc(-c2ccc(O)cc2)nc1-c1ccc(O)cc1 | 
inactive |  | Oc1ccc(-c2ccc(-c3ccc(O)cc3)s2)cc1 | 
 | > 1000 | Oc1ccc(-c2cccc(-c3ccc(O)cc3)c2)cc1 | 
 | > 5000 | Oc1ccc(-c2nc(-c3cccc(O)c3)cs2)cc1 | 
 | 471 | Oc1ccc(-c2ccc(-c3cccc(O)c3)cc2)cc1 | Activity (T47D): inactive
 | 69 | Oc1ccc(-c2ccc(-c3cccc(O)c3)s2)cc1 | Activity (T47D): inactive; Papp at 50 µM (in vitro [7]): 22 ×10⁻⁶ cm/s
 | > 1000 | Oc1ccc(-c2ncc(-c3cccc(O)c3)s2)cc1 | 
inactive |  | Oc1ccc(-c2cnc(-c3cccc(O)c3)[nH]2)cc1 | 

Continued, molecule first:

Structure (SMILES) | Activity [1] | IC50 [4] [nM] | other results
Oc1ccc(-c2cc(-c3cccc(O)c3)cs2)cc1 |  | 151 | RBA [2]: 0.01%; RBA [3]: 0.1%; IC50 (Cytochrome P450 2C19): > 4000 nM; Activity (T47D): inactive; half-life at 1 µM (in vitro [5]): 18.6 min; IC50 (Cytochrome P450 2B6): > 4000 nM; IC50 (Cytochrome P450 3A4): 1900 nM; IC50 (Cytochrome P450 2D6): > 4000 nM; microsomal CLint at 1 µM (in vitro [6]): 248 µL/min/mg; IC50 (Cytochrome P450 1A2): > 4000 nM; Papp at 50 µM (in vitro [7]): 14.4 ×10⁻⁶ cm/s
Oc1ccc(-c2ccc(-c3ccccc3)s2)cc1 | inactive |  | 
Oc1cccc(-c2ccc(-c3cccc(O)c3)[se]2)c1 | inactive |  | 
Oc1cccc(-c2cc(-c3ccccc3)cs2)c1 |  | > 5000 | 
Oc1ccc(-c2csc(-c3cccc(O)c3)c2)cc1 |  | 77 | RBA [2]: 0.01%; RBA [3]: 0.1%
Cn1nc(-c2cccc(O)c2)nc1-c1ccc(O)cc1 | inactive |  | 
Oc1ccc(-c2ccc(-c3ccc(O)cc3)[se]2)cc1 | inactive |  | 
Oc1cccc(-c2cn(-c3cccc(O)c3)nn2)c1 |  | > 5000 | 
Oc1cccc(-c2ccc(-c3cccc(O)c3)s2)c1 |  | 173 | 
c1ccc(-c2ccc(-c3ccccc3)s2)cc1 | inactive |  | 
